# Measured values reported in patent US8192962B2, “Processes for detecting toxic substances” (Daikin Industries, Ltd., priority 2001, dated 2012).
# Tested on: Detoxification protein genes
# Experiment: DNA chip mRNA expression in yeast, detoxification protein genes (Table 8)
# Assay type: cell-based, Saccharomyces cerevisiae S288C
# In short: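 First, S288C yeast grown in YPD at 25° C. are dosed in log phase with one toxicant (growth-inhibiting, not lethal) for 2 h. Next, total RNA is extracted and poly(A) mRNA isolated and reverse-transcribed with Cy3/Cy5-dUTP. Finally, whole-genome chip fluorescence is read relative to unexposed cells.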
compound,measurement,setting,value
"S=C([S-])NCCNC(=S)[S-].[Zn+2] [(11), zinc N,N′-ethylenebis(dithiocarbamate)]",The level of expressed mRNA in the presence of chemical substance/The level of expressed mRNA in the absence of chemical substance,yeast gene YBL064C,2.9
same,The level of expressed mRNA in the presence of chemical substance/The level of expressed mRNA in the absence of chemical substance,yeast gene YBR008C,9.4
same,The level of expressed mRNA in the presence of chemical substance/The level of expressed mRNA in the absence of chemical substance,yeast gene YBR145W,1.1
same,The level of expressed mRNA in the presence of chemical substance/The level of expressed mRNA in the absence of chemical substance,yeast gene YBR244W,1.5
same,The level of expressed mRNA in the presence of chemical substance/The level of expressed mRNA in the absence of chemical substance,yeast gene YBR293W,1.1
same,The level of expressed mRNA in the presence of chemical substance/The level of expressed mRNA in the absence of chemical substance,yeast gene YCL035C,2.1
same,The level of expressed mRNA in the presence of chemical substance/The level of expressed mRNA in the absence of chemical substance,yeast gene YCL069W,1.0
same,The level of expressed mRNA in the presence of chemical substance/The level of expressed mRNA in the absence of chemical substance,yeast gene YCR083W,1.8
same,The level of expressed mRNA in the presence of chemical substance/The level of expressed mRNA in the absence of chemical substance,yeast gene YDL100C,2.8
same,The level of expressed mRNA in the presence of chemical substance/The level of expressed mRNA in the absence of chemical substance,yeast gene YDL168W,1.9
same,The level of expressed mRNA in the presence of chemical substance/The level of expressed mRNA in the absence of chemical substance,yeast gene YDR256C,1.4
same,The level of expressed mRNA in the presence of chemical substance/The level of expressed mRNA in the absence of chemical substance,yeast gene YDR453C,2.3
same,The level of expressed mRNA in the presence of chemical substance/The level of expressed mRNA in the absence of chemical substance,yeast gene YDR513W,2.0
same,The level of expressed mRNA in the presence of chemical substance/The level of expressed mRNA in the absence of chemical substance,yeast gene YDR538W,0.9
same,The level of expressed mRNA in the presence of chemical substance/The level of expressed mRNA in the absence of chemical substance,yeast gene YEL027W,0.9
same,The level of expressed mRNA in the presence of chemical substance/The level of expressed mRNA in the absence of chemical substance,yeast gene YEL065W,0.6
same,The level of expressed mRNA in the presence of chemical substance/The level of expressed mRNA in the absence of chemical substance,yeast gene YER185W,1.6
same,The level of expressed mRNA in the presence of chemical substance/The level of expressed mRNA in the absence of chemical substance,yeast gene YFL050C,1.2
same,The level of expressed mRNA in the presence of chemical substance/The level of expressed mRNA in the absence of chemical substance,yeast gene YGL013C,0.9
same,The level of expressed mRNA in the presence of chemical substance/The level of expressed mRNA in the absence of chemical substance,yeast gene YGL254W,1.1
same,The level of expressed mRNA in the presence of chemical substance/The level of expressed mRNA in the absence of chemical substance,yeast gene YGR088W,3.9
same,The level of expressed mRNA in the presence of chemical substance/The level of expressed mRNA in the absence of chemical substance,yeast gene YGR138C,0.7
same,The level of expressed mRNA in the presence of chemical substance/The level of expressed mRNA in the absence of chemical substance,yeast gene YGR197C,1.1
same,The level of expressed mRNA in the presence of chemical substance/The level of expressed mRNA in the absence of chemical substance,yeast gene YGR209C,3.1
same,The level of expressed mRNA in the presence of chemical substance/The level of expressed mRNA in the absence of chemical substance,yeast gene YGR224W,0.8
same,The level of expressed mRNA in the presence of chemical substance/The level of expressed mRNA in the absence of chemical substance,yeast gene YHL040C,1.7
same,The level of expressed mRNA in the presence of chemical substance/The level of expressed mRNA in the absence of chemical substance,yeast gene YHL047C,1.0
same,The level of expressed mRNA in the presence of chemical substance/The level of expressed mRNA in the absence of chemical substance,yeast gene YHR008C,2.1
same,The level of expressed mRNA in the presence of chemical substance/The level of expressed mRNA in the absence of chemical substance,yeast gene YHR048W,2.0
same,The level of expressed mRNA in the presence of chemical substance/The level of expressed mRNA in the absence of chemical substance,yeast gene YHR053C,1.4
same,The level of expressed mRNA in the presence of chemical substance/The level of expressed mRNA in the absence of chemical substance,yeast gene YHR055C,1.8
same,The level of expressed mRNA in the presence of chemical substance/The level of expressed mRNA in the absence of chemical substance,yeast gene YIR002C,0.8
same,The level of expressed mRNA in the presence of chemical substance/The level of expressed mRNA in the absence of chemical substance,yeast gene YIR038C,3.4
same,The level of expressed mRNA in the presence of chemical substance/The level of expressed mRNA in the absence of chemical substance,yeast gene YJL101C,2.7
same,The level of expressed mRNA in the presence of chemical substance/The level of expressed mRNA in the absence of chemical substance,yeast gene YJR104C,2.6
same,The level of expressed mRNA in the presence of chemical substance/The level of expressed mRNA in the absence of chemical substance,yeast gene YKL026C,3.0
same,The level of expressed mRNA in the presence of chemical substance/The level of expressed mRNA in the absence of chemical substance,yeast gene YKL064W,0.7
same,The level of expressed mRNA in the presence of chemical substance/The level of expressed mRNA in the absence of chemical substance,yeast gene YKR066C,1.3
same,The level of expressed mRNA in the presence of chemical substance/The level of expressed mRNA in the absence of chemical substance,yeast gene YKR105C,0.0
same,The level of expressed mRNA in the presence of chemical substance/The level of expressed mRNA in the absence of chemical substance,yeast gene YKR106W,1.8
same,The level of expressed mRNA in the presence of chemical substance/The level of expressed mRNA in the absence of chemical substance,yeast gene YLL028W,0.7
same,The level of expressed mRNA in the presence of chemical substance/The level of expressed mRNA in the absence of chemical substance,yeast gene YLL057C,1.3
same,The level of expressed mRNA in the presence of chemical substance/The level of expressed mRNA in the absence of chemical substance,yeast gene YLL060C,14.1
same,The level of expressed mRNA in the presence of chemical substance/The level of expressed mRNA in the absence of chemical substance,yeast gene YLR043C,1.4
same,The level of expressed mRNA in the presence of chemical substance/The level of expressed mRNA in the absence of chemical substance,yeast gene YLR046C,0.9
same,The level of expressed mRNA in the presence of chemical substance/The level of expressed mRNA in the absence of chemical substance,yeast gene YML028W,1.0
same,The level of expressed mRNA in the presence of chemical substance/The level of expressed mRNA in the absence of chemical substance,yeast gene YML116W,4.3
same,The level of expressed mRNA in the presence of chemical substance/The level of expressed mRNA in the absence of chemical substance,yeast gene YMR015C,1.0
same,The level of expressed mRNA in the presence of chemical substance/The level of expressed mRNA in the absence of chemical substance,yeast gene YMR038C,2.7
same,The level of expressed mRNA in the presence of chemical substance/The level of expressed mRNA in the absence of chemical substance,yeast gene YNL239W,1.9
same,The level of expressed mRNA in the presence of chemical substance/The level of expressed mRNA in the absence of chemical substance,yeast gene YNL241C,3.0
same,The level of expressed mRNA in the presence of chemical substance/The level of expressed mRNA in the absence of chemical substance,yeast gene YNL259C,1.6
same,The level of expressed mRNA in the presence of chemical substance/The level of expressed mRNA in the absence of chemical substance,yeast gene YOL158C,0.7
same,The level of expressed mRNA in the presence of chemical substance/The level of expressed mRNA in the absence of chemical substance,yeast gene YOR031W,1.2
same,The level of expressed mRNA in the presence of chemical substance/The level of expressed mRNA in the absence of chemical substance,yeast gene YOR153W,1.0
same,The level of expressed mRNA in the presence of chemical substance/The level of expressed mRNA in the absence of chemical substance,yeast gene YOR247W,2.9
same,The level of expressed mRNA in the presence of chemical substance/The level of expressed mRNA in the absence of chemical substance,yeast gene YOR251C,1.0
same,The level of expressed mRNA in the presence of chemical substance/The level of expressed mRNA in the absence of chemical substance,yeast gene YOR273C,1.5
same,The level of expressed mRNA in the presence of chemical substance/The level of expressed mRNA in the absence of chemical substance,yeast gene YPL163C,0.5
same,The level of expressed mRNA in the presence of chemical substance/The level of expressed mRNA in the absence of chemical substance,yeast gene YPR200C,2.0
